Measurements: US20020022594A1, “Bax fragment induced tumor cell death” (priority 2000, published 2002)
Where a SMILES comes first, the peptide text is derived from it. [ ]: non-standard residue; d: D form. The star is where a group is joined. Nle = CCCC[C@H](N)C(=O)O; Cbz = O=C(OCc1ccccc1)*; CH2F = FC*

How the values were obtained:
Jurkat T cells [1] = assay: Cytochrome c release from mitochondria to cytosol in drug-treated Jurkat T cells; assay type: cell-based, human
Method: (§1) The resulting supernatant was then centrifuged at 14,000×g for 30 minutes, followed by collection of both the supernatant and pellet fractions. […] The supernatant was further centrifuged at 600,000×g for 30 minutes and the resulting supernatant was collected as the cytosol fraction. To prepare a whole cell extract, cells were lysed in the lysis buffer, and the lysate was centrifuged at 14,000×g for 30 minutes.
(§2) The primary antibodies used were: monoclonal B9anti-Bax antibody (Santa Cruz Biotechnology, Santa Cruz, Calif.) at 1:500, monoclonal 6A7 anti-Bax antibody (Pharmingen, San Diego, Calif.) at 1:500, monoclonal anti-Bcl-2 antibody (Dako, Glostrup, Denmark) at 1:500, monoclonal anti-caspase-3 antibody (Onocogene, Cambridge, Mass.) at 1:200, monoclonal anti-cytochrome C antibody (Pharmingen) at 1:500, polyclonal anti-PARP antibody (Boehringer Manheim, Indianapolis, Ind.) at 1:3000, monoclonal anti-cytochrome oxidase unit 11 (COX) antibody (Molecular Probes, Eugene, Oreg.) at 1:200, and monoclonal anti-calpain 30 kDa subunit antibody (Chemicon, Temecula, Calif.) at 1:500.

Jurkat T cells [2] = assay: Apoptotic execution in drug-treated Jurkat T cells (caspase-3 processing, PARP cleavage, DNA fragmentation, TUNEL)
Jurkat T cells [3] = assay: Calpeptin pre- and co-treatment of VP-16-treated Jurkat T cells; assay type: cell-based, human
Method: (§3) MCF-7, Jurkat T. Neo and Bcl-2 cells were cultured in RPMI 1640 supplemented with 10% fetal calf serum, 100 units/ml of penicillin and 100 μg/ml of streptomycin at 37° C. in a humidified atmosphere consisting of 5% CO2 and 95% air. […] For the experiment using a specific calpain inhibitor, Jurkat T cells were pretreated for 1 hour with calpeptin at 10 μM, followed by a co-incubation with 50 μM of VP-16, as indicated in figure legends.
as §1, §2

[4] = test system: cell-free Bax cleavage activity (calpain-like) in whole cell extract of VP-16-treated Jurkat T cells; assay: Cell-free Bax cleavage assay with protease inhibitors; assay type: biochemical, human; settings: 35S-labeled Bax, 2 hours
Method: Briefly, the ^35S-labeled Bax protein (1 μl) was incubated with 100 μg of a whole cell extract or a cytosol or mitochondrial fraction in an assay buffer (10 mM HEPES, pH 7.4, 5 mM MgCl2, 5 mM CaCl2, and 1 mM DTT), supplemented with ATP-regenerating system (0.1 mg/ml creatine kinase, 100 mM creatine phosphate, and 5 mM ATP) for 2 hours at 37° C. […] For inhibitor studies, 10 μM of calpain inhibitor-1 (LLnL), 10 μM of calpain inhibitor-2 (LLM), 20 μM of pan-caspase inhibitor Z-VAD-FMK, 20 μM of caspase-3 inhibitor Ac-DEVD-CMK, or 20 μM of the specific proteasome inhibitor castolactacystin, lactone was added in the Bax cleavage system.

[5] = test system: Bcl-2 cells (Jurkat T cells overexpressing Bcl-2); assay: VP-16 treatment of Bcl-2 overexpressing Jurkat T cells; settings: VP-16 50 μM
Jurkat T cells [6] = settings: VP-16 50 μM
[7] = test system: Neo cells (Jurkat T cells transfected with vector alone); assay: VP-16 treatment of Neo (vector) Jurkat T cells; assay type: cell-based, human; settings: VP-16 50 μM
Method: as §3, §1
Briefly, the ^35S-labeled Bax protein (1 μl) was incubated with 100 μg of a whole cell extract or a cytosol or mitochondrial fraction in an assay buffer (10 mM HEPES, pH 7.4, 5 mM MgCl2, 5 mM CaCl2, and 1 mM DTT), supplemented with ATP-regenerating system (0.1 mg/ml creatine kinase, 100 mM creatine phosphate, and 5 mM ATP) for 2 hours at 37° C. […]

Jurkat T cells [8] = assay: Cell-free Bax cleavage activity in whole cell lysates of drug-treated Jurkat T cells; settings: VP-16 50 μM; absent in untreated cells
[9] = test system: human breast cancer MCF-7; assay: Transient transfection of Bax/p18 or Bax/p21 cDNA in MCF-7 cells; assay type: cell-based
Method: as §1
(§4) Bax/p18 cDNA was amplified by PCR with human Bax-α-cDNA as template using primer 5′-[…] (forward) and 5′-[…] (reverse) (Wood et al., 1998) and cloned into pcDNA3.0 between Hind III and Xho I restriction enzyme sites. Bax/p18 cDNA was verified by sequencing. MCF-7, Jurkat T. Neo and BcI-2 cells were transfected with pcDNA3.0 vector alone or pcDNA3.0 vector containing Bax/p18 or Bax/p21 cDNA using GenePORTER Transfection Reagent (Gene Therapy Systems, San Diego, Calif.) according to the manufacture's instructions. Briefly, 3 μg of plasmid DNA in 500 μl of RPMI 1640 medium was incubated for 30 minutes at room temperature with 25 μl of GenePORTER reagent in 500 μl of RPMI 1640 medium. The resultant GenePORTER-plasmid DNA mixture (1 ml) was then added into cells 2×10^6 cells in a well of a 6-well plate, followed by 5 hours incubation at 37° C. in a humidified atmosphere consisting of 5% CO2. […]

Bcl-2 = biological target: T1, Bcl-2 (Homo sapiens, UniProt P10415); assay: Immunoprecipitation-Western blot assay of interaction with Bcl-2 in mitochondrial fraction; assay type: binding; settings: mitochondrial fraction of Jurkat T cells untreated or treated with VP-16 for 12 hours
T1 construct: the mitochondria fraction (500 μg of protein) from VP-16-treated or untreated Jurkat T cells; endogenous in cells; host or cells: Jurkat T cells, untreated or treated with VP-16 for 12 hours; mitochondrial membrane-enriched fraction
Method: Immunoprecipitation assay was performed as described previously (Fattman et al., 1997). Briefly, the mitochondria fraction (500 μg of protein) from VP-16-treated or untreated Jurkat T cells was incubated with a 5 μg of a monoclonal anti-human Bcl-2 antibody overnight at 4° C. The protein-antibody complex was then precipitated by incubating with 2 μl of Protein G plus Protein A agarose (Oncogene) for 1 hour at 4° C. and centrifuging at 2000×g at 4° C. for 1 hour. Both the precipitate and supernatant fractions were then analyzed by immunoblotting using the monoclonal B9 anti-human Bax antibody.

Jurkat T cells [10] = assay: Transient transfection of Bax/p18 or Bax/p21 cDNA in Jurkat T cells; assay type: cell-based, human; settings: 48 hours after cDNA transfection
Method: as §1
as §4, with “CO2. After that, 1 ml of RPMI 1640 medium containing 20% fetal calf serum was added and the cells were further incubated for additional 43 hours before harvest.” for “CO2.”

[11] = calpeptin 10 μM pre- and co-treatment, VP-16 50 μM

T1 sequence (P10415 whole entry): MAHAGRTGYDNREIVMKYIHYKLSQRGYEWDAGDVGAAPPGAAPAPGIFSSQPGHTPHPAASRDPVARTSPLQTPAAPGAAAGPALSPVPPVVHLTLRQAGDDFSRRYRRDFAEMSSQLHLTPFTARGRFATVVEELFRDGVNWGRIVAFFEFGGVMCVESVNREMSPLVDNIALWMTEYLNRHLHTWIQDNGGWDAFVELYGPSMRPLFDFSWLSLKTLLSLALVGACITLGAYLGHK

CN[C@@H]1C[C@H]2O[C@@](C)([C@@H]1OC)n1c3ccccc3c3c4c(c5c6ccccc6n2c5c31)C(=O)NC4 [staurosporin]
treatment time after which cytosolic cytochrome c appeared (Jurkat T cells [1]; staurosporin 1 μM): 3 h | time at which caspase-3 processing/activation, PARP cleavage and DNA fragmentation occurred (Jurkat T cells [2]; staurosporin 1 μM, up to 24 hours): ≥ 6 h

CCCC[C@@H](C=O)NC(=O)[C@H](CC(C)C)NC(=O)OCc1ccccc1 [calpeptin, Calpeptin]
effect on VP-16-induced Bax cleavage (Jurkat T cells [3]; [11]): delay | effect on VP-16-induced release of cytochrome c from mitochondria to the cytosol (Jurkat T cells [3]; [11]): delay | time of VP-16-induced caspase-3 processing and PARP cleavage with calpeptin (delayed from 6 hours) (Jurkat T cells [3]; [11]): 24 h | time of autolysis of the 30 kDa small subunit of calpain with calpeptin (delayed from 3 hours) (Jurkat T cells [3]; [11]): 24 h | apoptosis induction by the inhibitor itself (Jurkat T cells [3]; calpeptin 10 μM, 1 hour pretreatment, no VP-16): did not induce apoptosis | inhibition of PARP cleavage at 24 hours (Jurkat T cells [3]; fresh calpeptin added at 18 hours after VP-16 treatment): complete inhibition

COC(=O)C[C@H](NC(=O)[C@H](C)NC(=O)[C@@H](NC(=O)OCc1ccccc1)C(C)C)C(=O)CF [Z-VAD-FMK] (Cbz-Val-Ala-Asp(OMe)-CH2F)
inhibition of cell-free Bax cleavage activity ([4]; inhibitor 20 μM): partially inhibited

COc1cc([C@@H]2c3cc4c(cc3[C@@H](O[C@@H]3O[C@@H]5CO[C@@H](C)O[C@H]5[C@H](O)[C@H]3O)[C@H]3COC(=O)[C@H]23)OCO4)cc(OC)c1O [VP-16, Etoposide]
treatment time after which cytosolic cytochrome c appeared (Jurkat T cells [1]; VP-16 50 μM): 3 h | delay of appearance of Bax/p18 and p36 bands versus Neo cells [5]: 9 h | delay of detection of cell-free Bax cleavage activity versus Neo cells [5]: 9 h | time after which caspase-3 processing and PARP cleavage were observed [5]: 24 h | time after which release of cytochrome c was detected [5]: 12 h | time of appearance of Bax/p18 and p36 bands [5]: 12 h | time of autolysis of calpain 30 kDa subunit (delayed from 3 hours in Neo cells) [5]: 12 h | earliest time of Bax cleavage (Bax/p18 and p36 bands, B9 antibody) (Jurkat T cells [6]): 3 h | time at which autolysis of the calpain 30 kDa subunit began (Jurkat T cells [6]): 3 h | earliest time of appearance of Bax/p18 and p36 bands [7]: 3 h | treatment time at which apoptosis was induced (caspase-3 processing, PARP cleavage) [7]: ≥ 6 h | time at which apoptotic execution phase began (caspase-3 processing/activation, PARP cleavage, DNA fragmentation) (Jurkat T cells [2]; VP-16 50 μM): 6 h | treatment time at which cell-free Bax cleavage activity is present in cell extract (Jurkat T cells [8]): ≥ 3 h

CC(=O)N[C@@H](CC(=O)O)C(=O)N[C@@H](CCC(=O)O)C(=O)N[C@H](C(=O)N[C@@H](CC(=O)O)C(=O)CCl)C(C)C [Ac-DEVD-CMK]
inhibition of cell-free Bax cleavage activity ([4]; inhibitor 20 μM): partially inhibited

Bax/p18: calpain-cleaved 18 kDa Bax fragment; the cloned Bax/p18 consists of amino acids 33-192 of Bax, expressed from transfected cDNA
cytochrome c-associated apoptotic events [9]: release of cytochrome c, cleavage of PARP and fragmentation of DNA | interaction with Bcl-2 (co-immunoprecipitation by anti-Bcl-2 antibody) (Bcl-2): did not interact | caspase-3 processing/activation, PARP cleavage and DNA fragmentation (Jurkat T cells [10]): detected | release of cytochrome c (Jurkat T cells [10]): induced

Bax/p21: full-length Bax protein, endogenous or expressed from transfected Bax-α cDNA
cytochrome c-associated apoptotic events [9]: did not induce | interaction with Bcl-2 (co-immunoprecipitation by anti-Bcl-2 antibody) (Bcl-2): co-immunoprecipitated | release of cytochrome c (Jurkat T cells [10]): not observed

CCCC[C@@H](C=O)NC(=O)[C@H](CC(C)C)NC(=O)[C@H](CC(C)C)NC(C)=O [LLnL, calpain inhibitor I] (Ac-Leu-Leu-[Nle]-aldehyde)
inhibition of cell-free Bax cleavage activity ([4]; inhibitor 10 μM): completely inhibited

CSCC[C@@H](C=O)NC(=O)[C@H](CC(C)C)NC(=O)[C@H](CC(C)C)NC(C)=O [LLM, calpain inhibitor KK] (Ac-Leu-Leu-Met-aldehyde)
inhibition of cell-free Bax cleavage activity ([4]; inhibitor 10 μM): completely inhibited
